Where two headings read alike, the source gives them in different places. Where only a bound is given, the exact number is not on record here.

Data set [1] can be described thus: Plasma protein binding, human. The format is in vitro ADME.
For another data set, the system named is Aβ42. Briefly: Aβ ELISA of brain tissue of 3xTg mice. It counts as in vivo, mouse. Conditions: 7.5 mg/kg P.O. daily, one month. In general terms: ELISA stands for enzyme-linked immunosorbent assay.
The nature of a further data set: Solubility (pH 7.4, PBS). The format is physicochemical.
Another data set addresses T1, BCRP (Homo sapiens, UniProt Q9UNQ0).
T1 construct: endogenous in cells; host or cells: Caco-2
T1 sequence (Q9UNQ0 1-655): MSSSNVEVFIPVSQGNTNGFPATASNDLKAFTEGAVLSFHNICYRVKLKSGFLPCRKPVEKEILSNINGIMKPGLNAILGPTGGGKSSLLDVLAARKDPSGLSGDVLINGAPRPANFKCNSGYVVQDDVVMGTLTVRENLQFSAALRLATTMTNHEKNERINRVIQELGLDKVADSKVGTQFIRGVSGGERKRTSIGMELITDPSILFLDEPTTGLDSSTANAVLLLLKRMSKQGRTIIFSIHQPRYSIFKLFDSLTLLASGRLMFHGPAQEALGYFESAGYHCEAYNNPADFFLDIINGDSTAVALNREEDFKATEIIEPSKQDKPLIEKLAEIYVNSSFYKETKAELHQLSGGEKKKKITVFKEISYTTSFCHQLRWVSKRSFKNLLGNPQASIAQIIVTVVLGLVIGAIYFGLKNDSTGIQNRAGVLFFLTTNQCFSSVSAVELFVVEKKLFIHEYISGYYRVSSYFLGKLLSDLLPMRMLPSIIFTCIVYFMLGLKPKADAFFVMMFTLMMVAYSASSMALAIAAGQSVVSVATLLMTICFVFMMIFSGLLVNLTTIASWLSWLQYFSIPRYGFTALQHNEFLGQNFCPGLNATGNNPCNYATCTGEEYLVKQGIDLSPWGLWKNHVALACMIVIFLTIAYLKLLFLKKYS
Briefly: Caco-2-BCRP assay with and without Ko143. The format is in vitro ADME. The note with it: for Papp A→B / Papp B→A / recovery: human.

Data set [2] deals with T2, AEP (Rattus norvegicus, UniProt Q9R0J8).
T2 construct: endogenous in cells; host or cells: primary rat cortical neurons
T2 sequence (Q9R0J8 18-435): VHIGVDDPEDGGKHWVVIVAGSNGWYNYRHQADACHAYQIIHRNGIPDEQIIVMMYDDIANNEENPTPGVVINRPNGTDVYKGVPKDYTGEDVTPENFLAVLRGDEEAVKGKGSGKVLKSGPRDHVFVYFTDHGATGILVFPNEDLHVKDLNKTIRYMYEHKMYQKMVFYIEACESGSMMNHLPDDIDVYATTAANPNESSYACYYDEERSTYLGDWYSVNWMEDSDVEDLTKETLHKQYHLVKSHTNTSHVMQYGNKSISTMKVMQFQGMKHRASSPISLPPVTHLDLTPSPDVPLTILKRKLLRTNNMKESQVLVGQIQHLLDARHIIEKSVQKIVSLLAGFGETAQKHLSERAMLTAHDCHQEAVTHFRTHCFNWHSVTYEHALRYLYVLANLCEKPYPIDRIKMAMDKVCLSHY
In words: Titration assay of Aβ42-induced AEP activation in primary neurons (immunoblotting). The format is cell-based. Conditions: 2 μM pre-aggregated Aβ42, 24 h.

Data set [3] is described as follows: Stability in human hepatocytes. It counts as in vitro ADME.
Another data set deals with T3, P-glycoprotein (MDR1) (Homo sapiens, UniProt P08183).
T3 construct: expressed in transfected cells; host or cells: MDCKII
T3 sequence (P08183 whole entry): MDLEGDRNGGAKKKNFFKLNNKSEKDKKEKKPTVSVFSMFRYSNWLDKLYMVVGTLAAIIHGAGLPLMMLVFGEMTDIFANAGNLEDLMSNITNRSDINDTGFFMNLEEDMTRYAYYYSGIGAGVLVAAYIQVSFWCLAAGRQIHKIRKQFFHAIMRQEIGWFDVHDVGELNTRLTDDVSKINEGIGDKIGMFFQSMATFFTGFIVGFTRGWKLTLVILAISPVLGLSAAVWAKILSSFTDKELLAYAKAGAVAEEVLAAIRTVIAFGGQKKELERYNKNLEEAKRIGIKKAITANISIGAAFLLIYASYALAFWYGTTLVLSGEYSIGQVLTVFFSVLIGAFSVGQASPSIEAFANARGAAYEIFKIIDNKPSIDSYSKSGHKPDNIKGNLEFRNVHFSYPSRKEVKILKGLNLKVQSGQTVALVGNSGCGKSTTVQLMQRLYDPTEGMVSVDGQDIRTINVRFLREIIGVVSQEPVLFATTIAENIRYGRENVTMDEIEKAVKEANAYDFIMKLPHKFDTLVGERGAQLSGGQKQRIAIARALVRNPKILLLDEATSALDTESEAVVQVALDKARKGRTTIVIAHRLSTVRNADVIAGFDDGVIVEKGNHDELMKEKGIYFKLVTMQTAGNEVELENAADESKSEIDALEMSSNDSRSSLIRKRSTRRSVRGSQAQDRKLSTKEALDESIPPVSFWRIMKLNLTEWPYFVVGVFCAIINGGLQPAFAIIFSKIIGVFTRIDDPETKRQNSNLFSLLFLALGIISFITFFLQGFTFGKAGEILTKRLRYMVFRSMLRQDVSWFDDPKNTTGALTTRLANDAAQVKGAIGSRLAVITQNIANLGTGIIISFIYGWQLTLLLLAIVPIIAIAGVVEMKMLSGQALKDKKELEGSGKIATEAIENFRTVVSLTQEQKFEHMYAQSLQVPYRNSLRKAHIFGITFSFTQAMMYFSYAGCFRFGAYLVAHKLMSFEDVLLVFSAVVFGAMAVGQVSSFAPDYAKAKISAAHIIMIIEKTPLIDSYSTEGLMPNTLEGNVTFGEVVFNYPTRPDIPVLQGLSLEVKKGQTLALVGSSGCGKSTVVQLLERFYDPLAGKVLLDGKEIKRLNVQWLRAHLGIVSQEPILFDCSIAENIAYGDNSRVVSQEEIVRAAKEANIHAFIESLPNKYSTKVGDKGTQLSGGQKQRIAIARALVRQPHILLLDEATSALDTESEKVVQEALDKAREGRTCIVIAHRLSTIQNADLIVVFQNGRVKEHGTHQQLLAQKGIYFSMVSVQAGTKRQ
Briefly: MDR1-MDCKII permeability assay (P-glycoprotein efflux). The format is in vitro ADME. The note with it: dog, MDCK-MDR1.

In data set [4] the target is T2, AEP. In words: AEP inhibition in cultured primary neurons. The format is cell-based.
The nature of data set [5]: Stability in mouse liver microsomes. The note with it: read-out: Stability-Microsomes T1/2. The format is in vitro ADME. (Liver microsomes are vesicles of endoplasmic reticulum, rich in cytochrome P450 enzymes.)
A further data set concerns the target hERG K+ channel (Homo sapiens, UniProt Q12809). Briefly: hERG inhibition assay. (In general: Block of hERG is tested as a sign of cardiac risk.)

hERG K+ channel, sequence (Q12809 whole entry): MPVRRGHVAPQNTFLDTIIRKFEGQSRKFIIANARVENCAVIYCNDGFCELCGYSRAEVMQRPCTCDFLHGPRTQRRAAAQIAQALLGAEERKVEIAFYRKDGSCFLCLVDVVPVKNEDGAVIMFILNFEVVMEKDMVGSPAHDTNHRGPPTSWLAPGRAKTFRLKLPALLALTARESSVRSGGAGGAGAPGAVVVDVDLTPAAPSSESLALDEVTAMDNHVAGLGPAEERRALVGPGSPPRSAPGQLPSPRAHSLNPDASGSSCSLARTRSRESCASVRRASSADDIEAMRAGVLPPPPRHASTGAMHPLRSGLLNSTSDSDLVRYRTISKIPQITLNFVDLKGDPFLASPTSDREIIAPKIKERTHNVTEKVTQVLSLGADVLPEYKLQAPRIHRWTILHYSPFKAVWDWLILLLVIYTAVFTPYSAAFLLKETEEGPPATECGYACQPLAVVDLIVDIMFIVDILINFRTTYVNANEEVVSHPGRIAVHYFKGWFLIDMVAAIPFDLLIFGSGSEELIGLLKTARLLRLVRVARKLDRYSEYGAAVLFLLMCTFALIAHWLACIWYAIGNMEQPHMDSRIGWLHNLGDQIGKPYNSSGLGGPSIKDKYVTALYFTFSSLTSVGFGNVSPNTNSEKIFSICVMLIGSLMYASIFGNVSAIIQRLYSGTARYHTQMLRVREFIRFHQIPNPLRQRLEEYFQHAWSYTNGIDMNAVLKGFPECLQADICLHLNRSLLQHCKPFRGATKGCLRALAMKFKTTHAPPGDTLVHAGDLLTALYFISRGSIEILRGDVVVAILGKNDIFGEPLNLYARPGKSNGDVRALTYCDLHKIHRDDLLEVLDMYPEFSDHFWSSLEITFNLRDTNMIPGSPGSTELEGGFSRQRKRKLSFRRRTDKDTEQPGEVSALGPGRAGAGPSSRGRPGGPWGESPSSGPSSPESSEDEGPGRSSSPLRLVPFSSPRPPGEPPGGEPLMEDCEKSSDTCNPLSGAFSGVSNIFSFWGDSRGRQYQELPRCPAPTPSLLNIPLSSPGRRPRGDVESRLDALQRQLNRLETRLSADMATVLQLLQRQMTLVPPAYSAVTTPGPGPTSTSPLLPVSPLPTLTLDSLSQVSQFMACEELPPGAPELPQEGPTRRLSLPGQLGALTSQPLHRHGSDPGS

Usually solubility stands for the concentration that dissolves in the medium under given conditions. In general, Papp A→B refers to how fast a substance crosses the layer from the apical side. Read a low Papp A→B as poor permeation. One may read the Papp B→A as the apparent permeability from the basolateral to the apical side of a cell layer. By hepatocyte CLint is commonly meant the capacity of the preparation to metabolise the compound, expressed as a volume cleared per time. A low value points to greater metabolic stability. The IC50 is the midpoint of a concentration-inhibition curve. Consider `CC(C)Nc1nnc(Nc2cc(CO)c(N3CCOCC3)c3nonc23)s1` [11a-isopropyl], for which the “Plasma Protein F u, plasma(%)” value in [1] was determined as 13.8%. Besides, in the data set on Aβ42, the “Aβ42 level in brain, ELISA” value is listed as “significantly reduced”. Further, the solubility in “Solubility (pH 7.4, PBS)” (aqueous buffer, pH 7.4, read-out: Solubility (pH, media)) was 2450 µg/mL; in the data set “Solubility (pH 7.4, PBS)” (pH 7.4, aqueous buffer, pH7.4, read-out: Solubility (pH, media)), 6.25 mM. Moreover, at BCRP, the BCRP substrate classification entry is reported as “not a significant substrate of BCRP”. Moreover, the Papp A→B on BCRP (Caco-2, with Ko143 2 μM) was determined as 15.7 ×10⁻⁶ cm/s; on BCRP (Caco-2, Ko143 0 μM) it was 12.1 ×10⁻⁶ cm/s; on P-glycoprotein (MDR1) (a-b, first value in brackets), 0.568 ×10⁻⁶ cm/s. Further, the Papp B→A on BCRP (Caco-2, with Ko143 2 μM) came to 35.7 ×10⁻⁶ cm/s; at BCRP (Caco-2, Ko143 0 μM) it was 35.7 ×10⁻⁶ cm/s; on P-glycoprotein (MDR1) (b-a, second value in brackets), 61.9 ×10⁻⁶ cm/s. Moreover, the recovery on BCRP (Caco-2, with Ko143 2 μM, Ko143 2 μM, read-out: Recovery (%) A→B) was 107%; on BCRP (Caco-2, with Ko143 2 μM, Ko143 2 μM, read-out: Recovery (%) B→A), 98.5%; at BCRP (Caco-2, Ko143 0 μM, read-out: Recovery (%) A→B), 91.8%; on BCRP (Caco-2, Ko143 0 μM, read-out: Recovery (%) B→A), 104%. Besides, the “Aβ42-induced AEP activation” value at AEP [2] was “suppressed AEP activation in a dose-dependent manner”. This molecule also displayed a hepatocyte CLint in [3] of 22 µL/min/1e6 cells. The half-life in data set [3] (read-out: Stability-Hepatocytes T1/2) was 1.05 h; in [5], greater than 0.462 h. Further, the IC50 on AEP [4] is 63 nM; against hERG K+ channel it was greater than 10000 nM.
